Experimental data taken from patent publication US8003649B2 (AstraZeneca AB, priority 2007, dated 2011).

target: T1, Androgen Receptor (AR) (Homo sapiens, UniProt P10275, T878A); assay: LNCaP Androgen Receptor Down-regulation Cell Assay (immunofluorescence end point); type: cell-based; conditions: LNCaP prostate carcinoma cells, compound incubation 20-22 hours, 50% reduction of the AR signal; read-out: Androgen Receptor Down-regulation Assay (a) IC50/μM
T1 construct: cell based immuno-fluorescence assay using the LNCaP prostate epithelial cell line; endogenous in cells; host or cells: LNCaP clone FGC (ATCC CRL-1740)
T1 sequence (P10275 1-920 T878A): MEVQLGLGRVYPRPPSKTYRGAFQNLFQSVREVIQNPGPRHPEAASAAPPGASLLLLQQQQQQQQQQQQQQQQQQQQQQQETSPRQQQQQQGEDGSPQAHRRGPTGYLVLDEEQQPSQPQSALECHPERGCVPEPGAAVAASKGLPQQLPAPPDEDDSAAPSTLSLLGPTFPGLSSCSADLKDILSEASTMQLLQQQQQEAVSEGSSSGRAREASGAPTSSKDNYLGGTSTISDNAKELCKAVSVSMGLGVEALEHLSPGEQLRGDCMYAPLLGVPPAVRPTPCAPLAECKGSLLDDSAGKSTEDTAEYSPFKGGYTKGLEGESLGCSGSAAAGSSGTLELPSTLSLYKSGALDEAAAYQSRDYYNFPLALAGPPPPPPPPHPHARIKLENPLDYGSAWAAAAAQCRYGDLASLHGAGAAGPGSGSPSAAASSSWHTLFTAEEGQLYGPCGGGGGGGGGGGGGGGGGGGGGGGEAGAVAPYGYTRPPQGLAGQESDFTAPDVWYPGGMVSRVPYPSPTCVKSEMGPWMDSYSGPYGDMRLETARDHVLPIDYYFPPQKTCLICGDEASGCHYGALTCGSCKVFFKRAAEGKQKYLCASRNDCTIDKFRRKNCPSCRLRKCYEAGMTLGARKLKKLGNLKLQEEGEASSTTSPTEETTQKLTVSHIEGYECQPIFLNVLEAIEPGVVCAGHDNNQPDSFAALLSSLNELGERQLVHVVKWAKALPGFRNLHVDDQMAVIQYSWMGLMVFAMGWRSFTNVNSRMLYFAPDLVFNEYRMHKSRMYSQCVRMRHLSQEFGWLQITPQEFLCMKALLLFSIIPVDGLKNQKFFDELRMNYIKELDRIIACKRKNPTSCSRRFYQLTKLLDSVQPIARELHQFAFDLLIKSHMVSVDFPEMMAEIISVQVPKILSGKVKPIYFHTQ
In short: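 AR loss reported as IC50 from curve fits of fluorescence dose-response data, with AR immunostained and read by laser-scanning cytometry. Compound exposure was 20-22 h at 37° C in LNCaP cells grown in 5% charcoal-stripped FBS and plated overnight beforehand.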

Row | DC50 | SMILES
1 | 0.51 µM | Fc1ccc(C(F)F)c(CN2CCN(c3ccc4nnc(C(F)F)n4n3)CC2)c1 [Example 780, 3-(difluoromethyl)-6-[4-[2-(difluoromethyl)-5-fluorobenzyl]piperazin-1-yl][1,2,4]triazolo[4,3-b]pyridazine]
2 | 0.82 µM | Fc1cccc(CN2CCN(c3ccc4nnc(C(F)(F)F)n4n3)CC2)c1C(F)F [Example 781, 6-[4-[2-(difluoromethyl)-3-fluorobenzyl]piperazin-1-yl]-3-(trifluoromethyl)[1,2,4]triazolo[4,3-b]pyridazine]
3 | 2 µM | Fc1cccc(CN2CCN(c3ccc4nnc(C(F)F)n4n3)CC2)c1C(F)F [Example 782, 3-(difluoromethyl)-6-[4-[2-(difluoromethyl)-3-fluorobenzyl]piperazin-1-yl][1,2,4]triazolo[4,3-b]pyridazine]
4 | 0.84 µM | Fc1cc(CN2CCN(c3ccc4nnc(C(F)(F)F)n4n3)CC2)cc(C(F)F)c1 [Example 783, 6-[4-[3-(difluoromethyl)-5-fluorobenzyl]piperazin-1-yl]-3-(trifluoromethyl)[1,2,4]triazolo[4,3-b]pyridazine]
5 | 2.2 µM | Fc1cc(CN2CCN(c3ccc4nnc(C(F)F)n4n3)CC2)cc(C(F)F)c1 [Example 784, 3-(difluoromethyl)-6-[4-[3-(difluoromethyl)-5-fluorobenzyl]piperazin-1-yl][1,2,4]triazolo[4,3-b]pyridazine]
6 | 1.7 µM | Cc1cc(CN2CC3CN(c4ccc5nnc(C(F)(F)F)n5n4)CC3C2)ccn1 (stereo not drawn) [Example 785, 6-[5-[(2-methylpyridin-4-yl)methyl]hexahydropyrrolo[3,4-c]pyrrol-2(1H)-yl]-3-(trifluoromethyl)[1,2,4]triazolo[4,3-b]pyridazine]
7 | 8.4 µM | FC(F)(F)c1nnc2ccc(N3CC4CN(Cc5ccccn5)CC4C3)nn12 (stereo not drawn) [Example 786]
8 | 2.2 µM | COc1ncccc1CN1CC2CN(c3ccc4nnc(C(F)(F)F)n4n3)CC2C1 (stereo not drawn) [Example 788]
9 | 2.1 µM | Fc1cncc(CN2CC3CN(c4ccc5nnc(C(F)(F)F)n5n4)CC3C2)c1 (stereo not drawn) [Example 789]
10 | 2 µM | FC(F)(F)c1nnc2ccc(N3CC4CN(Cc5cccnc5Cl)CC4C3)nn12 (stereo not drawn) [Example 790]
11 | 0.96 µM | FC(F)(F)c1nnc2ccc(N3CC4CN(Cc5ccc(Cl)nc5)CC4C3)nn12 (stereo not drawn) [Example 791]
12 | 1.6 µM | COc1ccc(CN2CC3CN(c4ccc5nnc(C(F)(F)F)n5n4)CC3C2)cn1 (stereo not drawn) [Example 793]
13 | 1.1 µM | FC(F)(F)c1nnc2ccc(N3CC4CN(Cc5cncc(Br)c5)CC4C3)nn12 (stereo not drawn) [Example 794]
14 | 2.4 µM | Fc1ncc(Br)cc1CN1CC2CN(c3ccc4nnc(C(F)(F)F)n4n3)CC2C1 (stereo not drawn) [Example 795]
15 | 0.63 µM | FC(F)(F)c1nnc2ccc(N3CC4CN(Cc5cccnc5Br)CC4C3)nn12 (stereo not drawn) [Example 796]
16 | 2.4 µM | COc1cncc(CN2CC3CN(c4ccc5nnc(C(F)(F)F)n5n4)CC3C2)c1 (stereo not drawn) [Example 797]
17 | 1 µM | FC(F)(F)c1nnc2ccc(N3CC4CN(Cc5ccc(Br)nc5)CC4C3)nn12 (stereo not drawn) [Example 798]
18 | 1.6 µM | Cc1ncccc1CN1CC2CN(c3ccc4nnc(C(F)(F)F)n4n3)CC2C1 (stereo not drawn) [Example 799]
19 | 1.1 µM | FC(F)(F)c1nnc2ccc(N3CC4CN(Cc5cnccc5Cl)CC4C3)nn12 (stereo not drawn) [Example 800]
20 | 7 µM | COc1ccncc1CN1CC2CN(c3ccc4nnc(C(F)(F)F)n4n3)CC2C1 (stereo not drawn) [Example 803]
21 | 1 µM | FC(F)(F)c1ncccc1CN1CC2CN(c3ccc4nnc(C(F)(F)F)n4n3)CC2C1 (stereo not drawn) [Example 805]

Row | DC50 | SMILES
22 | 2.3 µM | COc1cccc(OC2CCN(c3ccc4nnc(C(F)(F)F)n4c3)CC2)c1 [Example 806, 6-[4-(3-methoxyphenoxy)piperidin-1-yl]-3-(trifluoromethyl)[1,2,4]triazolo[4,3-a]pyridine]
23 | 7.5 µM | FC(F)(F)c1nnc2ccc(N3CCN(Cc4c[nH]c5ccccc45)CC3)cn12 [Example 807]
24 | 1 µM | Fc1ccc2[nH]cc(CN3CCN(c4ccc5nnc(C(F)(F)F)n5c4)CC3)c2c1 [Example 808]
25 | 1.9 µM | Fc1ccc(C(F)F)c(CN2CCN(c3ccc4nnc(C(F)(F)F)n4c3)CC2)c1 [Example 810, 6-[4-[2-(difluoromethyl)-5-fluorobenzyl]piperazin-1-yl]-3-(trifluoromethyl)[1,2,4]triazolo[4,3-a]pyridine]
26 | 6.8 µM | Fc1cc(Cl)cc(CN2CCN(c3ccc4nnc(C(F)F)n4n3)CC2)c1 [Example 813]
27 | > 17 µM | Fc1ccc(Cl)c(CN2CCN(c3ccc4nnc(C(F)F)n4n3)CC2)c1 [Example 815]
28 | 3.8 µM | Fc1cc(CN2CCN(c3ccc4nnc(C(F)F)n4n3)CC2)cc(F)c1F [Example 818]
29 | > 18 µM | CS(=O)(=O)c1ccc(F)cc1CN1CCN(c2ccc3nnc(C(F)F)n3n2)CC1 [Example 819]
30 | 1.7 µM | Fc1cccc(CN2CCN(c3ccc4nnc(C(F)F)n4n3)CC2)c1Cl [Example 822]
31 | 4.7 µM | Fc1ccc(CN2CCN(c3ccc4nnc(C(F)F)n4n3)CC2)c(F)c1F [Example 823]
32 | 1.9 µM | FC(F)c1ccccc1CN1CCN(c2ccc3nnc(C(F)F)n3n2)CC1 [Example 824, 3-(difluoromethyl)-6-[4-[2-(difluoromethyl)benzyl]piperazin-1-yl][1,2,4]triazolo[4,3-b]pyridazine]
33 | 1.9 µM | FC(F)c1cccc(CN2CCN(c3ccc4nnc(C(F)F)n4n3)CC2)c1 [Example 825, 3-(difluoromethyl)-6-[4-[3-(difluoromethyl)benzyl]piperazin-1-yl][1,2,4]triazolo[4,3-b]pyridazine]
34 | 1.4 µM | FC(F)c1ccc(CN2CCN(c3ccc4nnc(C(F)F)n4n3)CC2)cc1 [Example 826, 3-(difluoromethyl)-6-[4-[4-(difluoromethyl)benzyl]piperazin-1-yl][1,2,4]triazolo[4,3-b]pyridazine]
35 | 1 µM | FC(F)c1ccc(CN2CCN(c3ccc4nnc(C(F)(F)F)n4n3)CC2)cc1 [Example 827, 6-[4-[4-(difluoromethyl)benzyl]piperazin-1-yl]-3-(trifluoromethyl)[1,2,4]triazolo[4,3-b]pyridazine]
36 | 9.5 µM | C[C@@H]1CN(c2ccc3nnc(C(F)(F)F)n3n2)CCN1Cc1ccncc1 [Example 828, 6-[(3R)-3-methyl-4-(pyridin-4-ylmethyl)piperazin-1-yl]-3-(trifluoromethyl)[1,2,4]triazolo[4,3-b]pyridazine]
37 | 0.85 µM | C[C@@H]1CN(c2ccc3nnc(C(F)(F)F)n3n2)CCN1Cc1cccc(Br)n1 [Example 830]
38 | 1.4 µM | C[C@@H]1CN(c2ccc3nnc(C(F)(F)F)n3n2)CCN1Cc1cccnc1Cl [Example 832]
39 | > 12 µM | C[C@@H]1CN(c2ccc3nnc(C(F)(F)F)n3n2)CCN1Cc1ccc(Cl)nc1 [Example 833]
40 | 20 µM | C[C@@H]1CN(c2ccc3nnc(C(F)(F)F)n3n2)CCN1Cc1cc(Br)cnc1F [Example 835]
41 | 1.6 µM | N#Cc1ccc(CN2CC3CN(c4ccc5nnc(C(F)(F)F)n5n4)CC3C2)cn1 (stereo not drawn) [Example 837, 5-[[5-[3-(trifluoromethyl)[1,2,4]triazolo[4,3-b]pyridazin-6-yl]hexahydropyrrolo[3,4-c]pyrrol-2(1H)-yl]methyl]pyridine-2-carbonitrile]
42 | 7.6 µM | N#Cc1ccc(CN2CCN(c3ccc4nnc(C(F)(F)F)n4n3)CC2)cn1 [Example 838, 5-[[4-[3-(trifluoromethyl)[1,2,4]triazolo[4,3-b]pyridazin-6-yl]piperazin-1-yl]methyl]pyridine-2-carbonitrile]
